Measured values published in US20260284079A1, “LIPID PRODRUGS OF ALLOPR[…] USES THEREOF” (Seaport Therapeutics, Inc., priority 2023, published 2026).

What was measured:
[1] = Single ascending dose (SAD) study, PK (Example 1 Part 1)
[2] = Sleep Quality Scale (SQS); assay type: in vivo, human; conditions: all cohorts
Procedure: The scale was administered in the morning, and subjects are asked to rate their sleep quality of the past 7 days, ranging from terrible (score of 0), poor (scores of 1-3), fair (scores of 4-6), good (scores of 7-9), and excellent (score of 10).

[3] = Food effect study, PK (Example 1 Part 2)
[4] = system: salivary cortisol levels; assay: Trier Social Stress Test (TSST), salivary cortisol (Example 2); assay type: in vivo, human
Procedure: A double-blind, placebo-controlled study was performed in 80 healthy participants to determine the effects of a single dose of Compound 1 in a validated and standardized behavioral challenge, the Trier Social Stress Test (TSST). The TSST is a reliable behavioral model used to examine the neurobiological response to acute stress in humans, whereby an acute stress (and associated acute stress response) is induced under experimentally controlled conditions. The TSST induces stress through public speaking. It incorporates social evaluation and unpredictability, by obliging the person to speak in front of an unresponsive audience and is further followed by a surprise mental arithmetic test. The TSST combines elements of a social-evaluative threat and uncontrollability to produce a consistent and robust physiological and psychological stress response in humans. On the day of the study, the participant was tasked with a speech prompt, for which they had 3 minutes to prepare. The participant was then required to present the speech for 5 minutes to a panel while under the pretense of being recorded. Following the speech, participants were given an unexpected mental arithmetic task. The TSST is more fully described in Allen A et al., Neurobiol. Stress (2017), February; 6:113-126.
The study included a validation cohort and a randomized cohort. The validation cohort (n=10) was given placebo for the purposes of validating the TSST and study endpoints. The randomized cohort […] were randomized and stratified by sex to placebo or 375 mg of Compound 1 in a 1:1 ratio. The cohorts are described in Table 14. An overview of the TSST study design is also depicted in FIG. 4C.
Compound 1 was formulated in combination with excipients Peceol™ (glyceryl monooleate), Kolliphor® RH40 (macrogolglycerol hydroxystearate) and super-refined sesame oil as a clear to yellow viscous solution. Each gram of formulation contains 300 mg of Compound 1, 189 mg of Peceol™, 336 mg Kolliphor® RH40, and 175 mg of super-refined sesame oil. To prepare the final dosage, the required quantity is manually filled into size 17.5 oblong capsules. The placebo contained vehicle only, i.e., the above formulation without Compound 1.
The objective of the study was to evaluate the efficacy of Compound 1 vs. placebo in blunting the response to endpoints measured during and after the TSST procedure. The primary efficacy endpoint was the change from baseline (before TSST procedure) to the peak (maximum change) in salivary cortisol levels as measured before, during, and after the TSST procedure. The primary outcome for determining this was salivary cortisol levels. The key secondary outcomes were be the Numerical Rating Scale (NRS) for stress, anxiety, fear, embarrassment, and excitement. Additional secondary outcomes were the State Trait Anxiety Index (STAI), and blood pressure. Safety and tolerability (i.e., incidence, severity, and duration of treatment-emergent adverse events (TEAEs), serious adverse events (SAEs), and incidence of other clinically relevant signs) were also monitored. Prior to the TSST, a post-dose sample was collected for pharmacokinetic analysis.
To normalize for food effects, participants were served a standardized meal to be consumed approximately 30 minutes prior to dosing with Compound 1. Compound 1 was administered with 240 mL of RT water ~3-4 hours prior to the start of the TSST.
Cortisol levels (including, for example, salivary cortisol levels) are a robust and sensitive marker of stress and the stress hormone response. Salivary cortisol concentrations were collected and measured throughout the study, with the primary endpoint being the maximum change from baseline (pre-TSST).

CCCCCCCC(=O)OCC(COC(=O)CCCCCCC)OC(=O)CC(C)CC(=O)OCOC(=O)O[C@@H]1CC[C@@]2(C)[C@@H](CC[C@@H]3[C@@H]2CC[C@]2(C)[C@@H](C(C)=O)CC[C@@H]32)C1 (some centres unmarked) [Compound 1]
dose proportionality of mean plasma allopregnanolone and combined allopregnanolone concentrations ([1]; doses up to 560 mg): increased at a dose proportional rate | oral bioavailability ([1]; human, oral): high oral bioavailability | dose proportionality of several PK parameters ([1]; range of 750 to 1000 mg): greater than dose-proportional increase | maximal concentrations and exposure values, combined allopregnanolone compared to allopregnanolone ([1]; single ascending doses): at least 10 times higher | sleep quality as measured by SQS [2]: no meaningful improvements or worsening | maximal concentrations and exposure values, combined allopregnanolone compared to allopregnanolone ([3]; 140 mg food effect study): approximately 15 times higher | increase of AUC0-t, AUC0-inf and Cmax in fed (LF) group compared to fasted and fed (HF) groups ([3]; allopregnanolone and combined allopregnanolone, 140 mg): 1.3 to 1.5 fold | decrease in salivary cortisol levels versus placebo, maximum non-transformed mean ([4]; 375 mg): ~ 2.2 × | time during which blunting of salivary cortisol was significantly different from placebo ([4]; 375 mg): up to 30 minutes post-end of TSST | treatment effect size versus placebo, Cohen's d ([4]; 375 mg): 0.72 | reduction in salivary cortisol levels post-TSST ([4]; 375 mg, 10 minutes post-TSST): 62.8% | reduction in salivary cortisol levels post-TSST ([4]; 375 mg, 60 minutes post-TSST): 45.5% | mean reduction in salivary cortisol levels post-TSST ([4]; 375 mg, across all time points): 54.4% | blunting of increases in salivary cortisol levels, LSMean change from baseline (pre-TSST) ([4]; single 375 mg oral dose ~3-4 hours before TSST): partial blunting
